Data published in US8053444B2 (Lek Pharmaceuticals d.d., priority 2007, dated 2011).

How the values were obtained:
[1] = Stress stability testing in vials, sirolimus impurities by HPLC; format: physicochemical; design: Total sum of impurities / Max.unknown impurity: unit not given here
Description: The origination of a solid solution of sirolimus was checked by X-ray diffraction analysis and Raman microscopy. […] These were exposed then to stress stability testing at 60° C. for 14 days and at 40° C. and 75% relative humidity for one month in vials. The amount of degradation products formed was compared to the samples of commercially available tablets comprising sirolimus.
The HPLC analyses were performed with a Waters system equipped with a Synergi Max-RP, 5 μm, 250×4.6 mm column which was maintained in a column oven at 40° C. The mobile phase consisted of a 40:54:6 (V/V/V) mixture of CF3COOH/NaOH with pH 2.5, acetonitrile and water. The flow rate was 1.4 mL/min, and the detection wavelength was 278 nm.
For the stability studies, two solid solutions were prepared using ethanol-soluble polymers polyvinylpyrrolidone (PVP) or hydroxypropylcellulose (HPC). The chemical stability was monitored for 14 days at 60° C. and 1 month at 40° C. and 75% relative humidity. The samples were stored in vials.

[2] = as above; format: physicochemical; design: unit not given here; conditions: 7 days, 60° C.
[3] = Solubility of sirolimus in water; conditions: volume of 250 ml of gastrointestinal fluid
[4] = 1 month, 40° C./75% relative humidity, in vials

Row | Compound | chemical stability of sirolimus, comparison in words ([1]; stress stability testing, comparison between samples of Table 3) | Max.unknown impurity ([1]; time of testing 0) | Total sum of impurities ([1]; time of testing 0) | Max.unknown impurity [2] | Total sum of impurities [2] | Max.unknown impurity [1, 4] | Total sum of impurities [1, 4] | Max.unknown impurity ([1]; 14 days, 60° C., in vials) | Total sum of impurities ([1]; 14 days, 60° C., in vials) | amount of sirolimus dissolved in gastrointestinal fluid [3]
1 | CO[C@H]1C[C@@H]2CC[C@@H](C)[C@@](O)(O2)C(=O)C(=O)N2CCCC[C@H]2C(=O)O[C@H]([C@H](C)C[C@@H]2CC[C@@H](O)[C@H](OC)C2)CC(=O)[C@H](C)/C=C(\C)[C@@H](O)[C@@H](OC)C(=O)[C@H](C)C[C@H](C)/C=C/C=C/C=C/1C [Example 1, sirolimus] | significantly less stable | 0.25 | 3.34 | 1.91 | 9.09 |  |  |  |  | 
2 | CO[C@H]1C[C@@H]2CC[C@@H](C)[C@@](O)(O2)C(=O)C(=O)N2CCCC[C@H]2C(=O)O[C@H]([C@H](C)C[C@@H]2CC[C@@H](O)[C@H](OC)C2)CC(=O)[C@H](C)/C=C(\C)[C@@H](O)[C@@H](OC)C(=O)[C@H](C)C[C@H](C)/C=C/C=C/C=C/1C [Substance in a crystal form, sirolimus] |  | 0.19 | 0.70 |  |  | 0.26 | 0.59 | 0.26 | 0.60 | 
3 | CO[C@H]1C[C@@H]2CC[C@@H](C)[C@@](O)(O2)C(=O)C(=O)N2CCCC[C@H]2C(=O)O[C@H]([C@H](C)C[C@@H]2CC[C@@H](O)[C@H](OC)C2)CC(=O)[C@H](C)/C=C(\C)[C@@H](O)[C@@H](OC)C(=O)[C@H](C)C[C@H](C)/C=C/C=C/C=C/1C [Sirolimus, (3S,6R,7E,9R,10R,12R,14S,15E,17E,19E,21S,23S,26R,27R,34aS)-9,10,12,13, -14,21,22,23,24,25,26,27,32,33,34,34a-hexadecahydro-9,27-dihydroxy-3-[(1R)-2-[(1S,3R,4R)-4-hydroxy-3-methoxycyclohexyl]-1-methylethyl]-10,21-dimethox-y-6,8,12,14,20,26-hexamethyl-23,27-epoxy-3H-pyrido[2,1-c][1,4]oxaazacycloh-entriacontine-1,5,11,28,29(4H,6H,31H)-pentone] |  |  |  |  |  |  |  |  |  | about 0.65 mg
